What was measured:
[1] = biological target: T1, human CRF1 receptor (Homo sapiens, UniProt P34998); experiment: Measurement of CRF Binding Inhibitory Rate (receptor binding experiment with 125I-CRF); conditions: human CRF1 receptor expressing CHO cellular membrane fraction, 50 pM 125I-CRF, room temperature 1.5 hr, 0.05 nM to 10 μM of compound; read-out: IC50 values (CRF binding inhibition)
T1 construct: expressed in transfected cells; host or cells: CHO cells (membrane fraction)
T1 sequence (P34998 24-415): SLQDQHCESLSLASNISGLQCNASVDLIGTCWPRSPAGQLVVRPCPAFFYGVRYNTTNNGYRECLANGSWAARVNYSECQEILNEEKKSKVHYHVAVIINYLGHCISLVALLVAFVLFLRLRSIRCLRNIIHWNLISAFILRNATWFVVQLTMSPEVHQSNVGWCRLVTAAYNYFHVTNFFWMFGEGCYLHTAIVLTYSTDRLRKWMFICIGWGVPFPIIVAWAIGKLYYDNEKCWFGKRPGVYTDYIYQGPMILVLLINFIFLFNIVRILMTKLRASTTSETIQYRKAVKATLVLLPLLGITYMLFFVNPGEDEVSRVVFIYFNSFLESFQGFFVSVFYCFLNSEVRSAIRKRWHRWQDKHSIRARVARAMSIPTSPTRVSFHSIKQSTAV

Structure (SMILES): CCC(CC)c1ccc(Cl)c2nc3n(c12)CCCCN3c1cc(C)cc2c1ncn2C [Example 230, 10-Chloro-1-(1,6-dimethyl-1H-benzimidazol-4-yl)-7-(1-ethylpropyl)-2,3,4,5-tetrahydro-1H-[1,3]diazepino[1,2-a]benzimidazole]
- melting point: 259 to 260 °C
- IC50 [1]: < 1000 nM

Structure (SMILES): CCN(CC)c1cccc2nc3n(c12)CC(F)(F)CN3c1ccc(Cl)cc1Cl [Example 231, 1-(2,4-Dichlorophenyl)-N,N-diethyl-3,3-difluoro-1,2,3,4-tetrahydropyrimido[1,2-a]benzimidazol-6-amine]
- melting point: 125 to 127 °C
- IC50 [1]: < 1000 nM

Structure (SMILES): CC(=O)OC(c1ccc(Cl)c2nc3n(c12)CCCN3c1ccc(Cl)cc1Cl)C1CC1 (stereo not drawn) [Example 244, [9-Chloro-1-(2,4-dichlorophenyl)-1,2,3,4-tetrahydropyrimido[1,2-a]benzimidazol-6-yl](cyclopropyl)methyl acetate]
- melting point: 208 to 210 °C
- IC50 [1]: < 1000 nM

Structure (SMILES): CCN(CC)c1ccc(F)c2nc3n(c12)CCCN3c1ccc(Cl)cc1Cl [Example 365, 1-(2,4-Dichlorophenyl)-N,N-diethyl-9-fluoro-1,2,3,4-tetrahydropyrimido[1,2-a]benzimidazol-6-amine]
- melting point: 170 to 172 °C
- IC50 [1]: < 1000 nM

Structure (SMILES): CC(=O)OC(c1ccc(Cl)c2nc3n(c12)CCCN3c1ccc(Cl)cc1Cl)C(F)(F)F (stereo not drawn) [Example 311, 1-[9-Chloro-1-(2,4-dichlorophenyl)-1,2,3,4-tetrahydropyrimido[1,2-a]benzimidazol-6-yl]-2,2,2-trifluoroethyl acetate]
- melting point: 197 to 199 °C
- IC50 [1]: < 1000 nM

Structure (SMILES): Cc1nc(OC(F)F)ccc1N1CCCn2c1nc1c(Cl)ccc(C(OC(F)F)C(F)(F)F)c12 (stereo not drawn) [Example 290, 9-Chloro-1-[6-(difluoromethoxy)-2-methylpyridin-3-yl]-6-[1-(difluoromethoxy)-2,2,2-trifluoroethyl]-1,2,3,4-tetrahydropyrimido[1,2-a]benzimidazole]
- melting point: 145 to 148 °C
- IC50 [1]: < 1000 nM

Structure (SMILES): CCC(CC)c1cccc2nc3n(c12)CCCCN3c1ccc(OC)cc1OC [Example 37, 1-(2,4-Dimethoxyphenyl)-7-(1-ethylpropyl)-2,3,4,5-tetrahydro-1H-[1,3]diazepino[1,2-a]benzimidazole]
- melting point: 145 to 148 °C
- IC50 [1]: < 1000 nM

Structure (SMILES): CCC(CC)c1ccc(Cl)c2nc3n(c12)CCCCN3c1cnc(C#N)cc1C [Example 59, 5-[10-Chloro-7-(1-ethylpropyl)-2,3,4,5-tetrahydro-1H-[1,3]diazepino[1,2-a]benzimidazol-1-yl]-4-methylpyridine-2-carbonitrile]
- melting point: 177 to 178 °C
- IC50 [1]: < 1000 nM

Structure (SMILES): CC(C)(CO)c1ccc(Cl)c2nc3n(c12)CCCN3c1ccc(Cl)cc1Cl [Example 148, 2-[9-Chloro-1-(2,4-dichlorophenyl)-1,2,3,4-tetrahydropyrimido[1,2-a]benzimidazol-6-yl]-2-methylpropan-1-ol]
- melting point: 176 to 177 °C
- IC50 [1]: < 1000 nM

Structure (SMILES): CCC(OC(=O)CS(C)(=O)=O)c1ccc(Cl)c2nc3n(c12)CCCN3c1ccc(Cl)cc1Cl (stereo not drawn) [Example 433, 1-[9-Chloro-1-(2,4-dichlorophenyl)-1,2,3,4-tetrahydropyrimido[1,2-a]benzimidazol-6-yl]propyl (methylsulfonyl) acetate]
- melting point: 187 to 189 °C
- IC50 [1]: < 1000 nM

Structure (SMILES): Cc1nc(OC(C)C)nc(C)c1N1CCCn2c1nc1c(Cl)ccc(C(OC(F)F)C(F)(F)F)c12 (stereo not drawn) [Example 211, 9-Chloro-6-[1-(difluoromethoxy)-2,2,2-trifluoroethyl]-1-[4,6-dimethyl-2-(1-methylethoxy)pyrimidin-5-yl]-1,2,3,4-tetrahydropyrimido[1,2-a]benzimidazole]
- melting point: 227 to 230 °C
- IC50 [1]: < 1000 nM

Structure (SMILES): CCOc1ccc(N2CCCn3c2nc2c(Cl)ccc(C(OC(F)F)C(F)(F)F)c23)c(C)c1 (stereo not drawn) [Example 356, 9-Chloro-6-[1-(difluoromethoxy)-2,2,2-trifluoroethyl]-1-(4-ethoxy-2-methylphenyl)-1,2,3,4-tetrahydropyrimido[1,2-a]benzimidazole]
- melting point: 179 to 182 °C
- IC50 [1]: < 1000 nM

Structure (SMILES): CCC(OCC(F)(F)F)c1ccc(Cl)c2nc3n(c12)CCCN3c1ccc(OC)nc1C (stereo not drawn) [Example 272, 9-Chloro-1-(6-methoxy-2-methylpyridin-3-yl)-6-[1-(2,2,2-trifluoroethoxy)propyl]-1,2,3,4-tetrahydropyrimido[1,2-a]benzimidazole]
- melting point: 124 to 126 °C
- IC50 [1]: < 1000 nM

Structure (SMILES): CCC(CC)c1ccc(Cl)c2nc3n(c12)CCN3c1ccc(C(N)=O)cc1Cl [Example 15, 3-Chloro-4-[8-chloro-5-(1-ethylpropyl)-2,3-dihydro-1H-imidazo[1,2-a]benzimidazol-1-yl]benzamide]
- melting point: 225 to 229 °C
- IC50 [1]: < 1000 nM

Structure (SMILES): CCC(O)c1cccc2nc3n(c12)CCCCN3c1ccc(Cl)cc1Cl (stereo not drawn) [Example 68, 1-[1-(2,4-Dichlorophenyl)-2,3,4,5-tetrahydro-1H-[1,3]diazepino[1,2-a]benzimidazol-7-yl]propan-1-ol]
- melting point: 241 to 243 °C
- IC50 [1]: < 1000 nM

Structure (SMILES): CCC(CC)c1ccc(Cl)c2nc3n(c12)CCCCN3c1ncc(N(C)C)cc1C [Example 66, 6-[10-Chloro-7-(1-ethylpropyl)-2,3,4,5-tetrahydro-1H-[1,3]diazepino[1,2-a]benzimidazol-1-yl]-N,N,5-trimethylpyridin-3-amine]
- melting point: 188 to 190 °C
- IC50 [1]: < 1000 nM

Structure (SMILES): CCCC(OC)c1ccc(Cl)c2nc3n(c12)CCCN3c1c(C)cc(Cl)cc1Cl (stereo not drawn) [Example 141, 9-Chloro-1-(2,4-dichloro-6-methylphenyl)-6-(1-methoxybutyl)-1,2,3,4-tetrahydropyrimido[1,2-a]benzimidazole]
- melting point: 151 to 152 °C
- IC50 [1]: < 1000 nM

Structure (SMILES): CCC(O)(CC)c1ccc(Cl)c2nc3n(c12)CCCN3c1ccc(Cl)cc1Cl [Example 107, 3-[9-Chloro-1-(2,4-dichlorophenyl)-1,2,3,4-tetrahydropyrimido[1,2-a]benzimidazol-6-yl]pentan-3-ol]
- melting point: 199 to 201 °C
- IC50 [1]: < 1000 nM

Structure (SMILES): CCC(OC(C)=O)c1ccc(Cl)c2nc3n(c12)CCCN3c1ncc(Cl)cc1Cl (stereo not drawn) [Example 171, 1-[9-Chloro-1-(3,5-dichloropyridin-2-yl)-1,2,3,4-tetrahydropyrimido[1,2-a]benzimidazol-6-yl]propyl acetate]
- melting point: 157 to 159 °C
- IC50 [1]: < 1000 nM

Structure (SMILES): COc1ccc(N2CCCn3c2nc2c(Cl)ccc(C(OCC(F)(F)F)C4CC4)c23)c(C)c1 (stereo not drawn) [Example 353, 9-Chloro-6-[cyclopropyl(2,2,2-trifluoroethoxy)methyl]-1-(4-methoxy-2-methylphenyl)-1,2,3,4-tetrahydropyrimido[1,2-a]benzimidazole]
- melting point: 157 to 158 °C
- IC50 [1]: < 1000 nM

Structure (SMILES): CCC(NS(C)(=O)=O)c1ccc(Cl)c2nc3n(c12)CCCN3c1ccc(Cl)cc1Cl (stereo not drawn) [Example 373, N-{1-[9-Chloro-1-(2,4-dichlorophenyl)-1,2,3,4-tetrahydropyrimido[1,2-a]benzimidazol-6-yl]propyl}methanesulfonamide]
- melting point: 125 to 126 °C
- IC50 [1]: < 1000 nM
